# Results: US20140193827A1 (TEVA PHARMACEUTICAL INDUSTRIES, LTD., priority 2013, published 2014)
# Test system: GA-primed murine splenocytes
# Test: ANOVA-based pattern identification method
# Type: cell-based, mouse
# Settings: DOWN IN GA AND REF ONLY
# Source text: We sought to identify probes matching specific patterns of expression across experimental conditions using a technique that referred to as the ANOVA-based Pattern Identification Method.
# To carry out the analysis in a general manner, we computed the 6 p-values required to do pairwise comparisons of all 4 conditions for all probes using the ANOVA1 function in MATLAB. We then identified sets of probes matching the desired pattern. In the example above, probes were identified as being only affected by PG if their 6 pairwise comparison pvalues matched the following pattern (pGA-PG<0.05, pPG-reference standard<0.05, pPG-Medium<0.05, pGAMedium>0.05, pGA-reference standard>0.05, preference standard-Medium>0.05).
substance,measurement,value
glatiramer acetate [GA],AA536749 expression level,8.75
same,C5F3R expression level,5.814
same,CD33 expression level,6.382
same,CD63 expression level,7.484
same,CLEC4E expression level,6.76
same,CXCR4 expression level,9.154
same,GAS7 expression level,6.685
same,GPR97 expression level,6.1434
same,KLC4 expression level,7.786
same,LOC385923 expression level,7.651
same,LOC386268 expression level,6.655
same,LOC386288 expression level,7.006
same,LOC386360 expression level,9.445
same,TMEM38B expression level,8.3
same,average expression of 1100001G20RIK,6.239
same,average expression of 1110014N23RIK,9.678
same,average expression of 1200002N14RIK,6.896
same,average expression of 1300010F03R1K,6.604
same,average expression of 1300010F03RIK,6.764
same,average expression of 1700073E17RIK,5.669
same,average expression of 1810009N02RIK,8.11
same,average expression of 1810030N24RIK,6.84
same,average expression of 2010001M09RIK,13.2
same,average expression of 2310040G07RIK,5.712
same,average expression of 2310067B10RIK,7.502
same,average expression of 2310079N02RIK,9.098
same,average expression of 2510022D24RIK,8.141
same,average expression of 2610024M03RIK,6.018
same,average expression of 2610028H07RIK,10.1
same,average expression of 2810402K13RIK,8.169
same,average expression of 2810422O20RIK,7.018
same,average expression of 2900079J23RIK,5.766
same,average expression of 3110004L20RIK,5.934
same,average expression of 3110082D06RIK,5.99
same,average expression of 4930519F16RIK,5.617
same,average expression of 4930572J05RIK,10.41
same,average expression of 5031439G07RIK,7.967
same,average expression of 5330417C22RIK,5.64
same,average expression of 5830415F09RIK,6.998
same,average expression of 6230425C21RIK,7.021
same,average expression of 6430511F03,6.247
same,average expression of 6430526N21RIK,7.232
same,average expression of 6720480F11RIK,5.641
same,average expression of 6720486H14RIK,5.584
same,average expression of 9030025P20RIK,8.593
same,average expression of 9330152L17,5.75
same,average expression of A430043M19RIK,6.108
same,average expression of A630038P11RIK,5.552
same,average expression of A730017D01RIK,6.519
same,average expression of A930014P08RIK,5.554
same,average expression of ABCC4,7.757
same,average expression of ACBD4,9.154
same,average expression of ACP2,6.811
same,average expression of ACTR3B,6.47
same,average expression of ADAM11,5.629
same,average expression of AGAP1,5.989
same,average expression of ANKRD13A,10.24
same,average expression of APP,6.949
same,average expression of ARHGAP22,6.192
same,average expression of ATP6V1B2,10.4
same,average expression of AW011738,6.2494
same,average expression of B130002B06RIK,5.7347
same,average expression of B930048N13RIK,5.895
same,average expression of B930049N04RIK,5.592
same,average expression of B930097H17RIK,5.792
same,average expression of BC014795,8.05
same,average expression of BC065397,6.46
same,average expression of BC066107,6.578
same,average expression of BMP3,5.623
same,average expression of BRD2,11.26
same,average expression of C330019G07RIK,6.738
same,average expression of C430003P19RIK,9.571
same,average expression of CAGE1,5.862
same,average expression of CASP1,11.51
same,average expression of CBLC,5.866
same,average expression of CD151,8.029
same,average expression of CENTG3,6.784
same,average expression of CEPT1,10.22
same,average expression of CFB,6.244
same,average expression of CLEC4A1,6.263
same,average expression of CLEC5A,5.873
same,average expression of CNTNAP3,5.796
same,average expression of COgeneric,8.105
same,average expression of CREG1,6.616
same,average expression of CRTAC1,5.925
same,average expression of CTSL,5.744
same,average expression of D030051N19RIK,8.287
same,average expression of D030072B18RIK,5.56
same,average expression of DGKQ,6.895
same,average expression of DLG3,7.023
same,average expression of DNMT3L,6.042
same,average expression of DUSP6,5.768
same,average expression of E330023P07RIK,5.77
same,average expression of EG434402,9.171
same,average expression of EG633640,6.136
same,average expression of ELL,9.635
same,average expression of EPB4.1L3,5.896
same,average expression of EPN3,5.711
same,average expression of ERCC4,8.15
same,average expression of FA2H,5.977
same,average expression of FBXL20,7.805
same,average expression of FCMD,6.473
same,average expression of FOS,6.875
same,average expression of FRMPD1,5.584
same,average expression of GAA,8.021
same,average expression of GALGT1,7.448
same,average expression of GALNT10,8.096
same,average expression of GDPD1,6.392
same,average expression of GM498,5.674
same,average expression of GPS2,9.303
same,average expression of GSTM2,5.945
same,average expression of GTPBP1,9.185
same,average expression of HMOX1,6.561
same,average expression of HRSP12,8.037
same,average expression of IGK-V33,9.992
same,average expression of IGLC2_J00595—IG_LAMBDA—CONSTANT_2_14,13.7
same,average expression of IRAK3,9.019
same,average expression of IRF3,7.749
same,average expression of IVD,9.212
same,average expression of KCNC4,5.832
same,average expression of KRT39,5.551
same,average expression of KRTAP5-4,5.651
same,average expression of LOC193563,5.759
same,average expression of LOC238836,13.84
same,average expression of LOC243025,6.623
same,average expression of LOC327767,5.978
